# Assay results as given in patent US9655965B2, “Radiosensitizer compounds for use in combination with radiation” (priority 2013, dated 2017).
# “Also recorded” adds a separate entry of the source.
# Tests used:
# [1] = tested on: human normal cells (GM05757); assay: In vitro radiation-induced toxicity in human normal cells, MTT assay 12 days after X-ray; assay type: cell-based; conditions: GM05757, 12-hr treatment, then 0-10 Gy 225 keV X-ray, MTT at 12 days
# From the text: (§1) Dibromo-diamino-benzene (Dibromo-phenylenediamine, Compound B) was obtained from TCI-America. Diiodo-diaminobenzene (Compound C) were synthesized, purified and crystallized in our laboratory, and the structures and purity were examined by NMR and mass spectrometry. MEM and fetal bovine serum (FBS), penicillin G and streptomycin were obtained from Hyclone Laboratories (UT, USA). Stock solution of cisplatin was freshly prepared in ultrapure water or saline, and stock solutions of Compounds A, B, C, D were prepared in pure ethanol, where the final concentration of ethanol was ≦1% when treated to cells.
# A human skin diploid fibroblast (GM05757 cell line) was obtained from the Coriell Cell Repository directly. Fetal bovine serum (FBS) was obtained from Hyclone Laboratories (UT, USA). The GM05757 normal cells were cultivated with MEM (Hyclone) supplemented with 10% FBS, 100 units/mL penicillin G and 100 μg/mL streptomycin (Hyclone). The cells were maintained at 37° C. in a humidified atmosphere containing 5% CO2.
# The radiosensitizing effects of RSCs on cell viability were determined by the 3-[4,5-dimethylthiazol-2-yl]-2,5-diphenyl tetrazoliumbromide (MTT) assay. Cells were cultured in 96-well plates (5×10^3 cells/well) for 24 h. The culture medium was replaced by fresh culture medium and incubated for 12 h with varying drug concentrations. The cells were then irradiated by 225 kV X-ray (PRECISION X-RAD IR 225) at a dose rate of 2 Gy/min with various X-ray doses. After irradiation, the cells were incubated for 12 days. The MTT assay of cell viability was then conducted. Briefly, 100 μl new medium without phenol red containing 1.2 mM MTT (sigma) (i.e., adding 10 μl 12 mM MTT stock solution in PBS) were added to each well and incubated for 4 h. […] The surviving fraction was determined by measuring the absorbance at 540 nm (570 nm for SDS solubilization) using a Multiskan Spectrum UV/Vis microplate reader (Thermo Scientific), which is directly proportional to the number of viable cells.
# SCID mice = assay: In vivo toxicity of Compound B in SCID mice
# Experimental: The three groups (five 6-8 week SCID mice/group) in the experiment were: (1) control article (5% EtOH/medium); (2) Compound B 5 mg/kg in 5% EtOH/medium; and (3) Compound B 7 mg/kg in 5% EtOH/medium, as shown in Table 1. Compound B was injected IP every day for 10 days.
# 6.1.2 Mouse and Compound B Solution Preparation: • 6-8 week SCID mice were used in this study; Compound B as an exemplary RSC was dissolved in 5% EtOH: 95% (cell culture) medium (≈1:20).
# 6-8 week SCID Mice were individually weighed and injected intraperitoneally (IP) according to body weight for an injection concentration as outlined in the study group table above. […]
# The overall drug toxicity in mice was observed by a survival assay and body weight measurements, and the acute drug toxicity was measured by blood collection and histology. The hepatotoxicity (ALT, ALP, AST), nephrotoxicity (blood BUN, creatinine), and electrolytes (Na, K, etc) were analyzed by HPLC-mass spectroscopy. […]
# All animals were observed post administration, and at least once a day, more if deemed necessary, during the pre-treatment and treatment periods for mortality and morbidity. In particular, animals were monitored for signs of ill health such as body weight loss, change in appetite, behavior changes such as altered gait, lethargy and gross manifestations of stress.
# [2] = tested on: cisplatin-resistant human lung cancer (HTB-161) cells; assay: In vitro radiosensitizing effect, 18-day clonogenic assay; assay type: cell-based; conditions: HTB-161, 12-hr treatment, 0-10 Gy 225 keV X-ray
# From the text: as §1, with “TCI—America.” for “TCI-America.”
# A human skin diploid fibroblast (GM05757 cell line) was obtained from the Coriell Cell Repository directly, while the human cervical cancer cell line (HeLa, ATCC#: CCL-2; or ME-180), human ovarian cancer cell line (NIH:OVCAR-3, ATCC#: HTB-161) and human lung cancer cell line (A549, ATCC#: CCL-185™), together with RPMI 1640, F-12K, McCoy's 5 A and L-15 culture media, were obtained from the American Type Culture Collection (ATCC) directly. Fetal bovine serum (FBS) was obtained from Hyclone Laboratories (UT, USA). The GM05757 normal cells and HeLa cells were cultivated with MEM (Hyclone) supplemented with 10% FBS, 100 units/mL penicillin G and 100 μg/mL streptomycin (Hyclone). […]
# [3] = In vivo pharmacokinetics of Compound B in SCID mice
# From the text: Blood samples were collected from the saphenous vein of mice at various time points after IP injection of the compound into the mice and then analyzed using HPLC-Mass Spectrometry.
smiles,measurement,setting,value
"Nc1cc(Br)c(Br)cc1N [Compound B, 4,5-dibromo-1,2-phenylenediamine]",radiation toxicity in human normal cells,[1],no radiation toxicity
same,"overall toxicity in mice (survival, body weight)","SCID mice; IP 0, 5 and 7 mg/kg daily for 10 days",no overall drug toxicity; also recorded: no overall toxicity in mice
same,survival rate of mice,"SCID mice; SCID, mouse, in vivo, 10 days",100%
same,enhancement of radiosensitivity of cisplatin-resistant cancer cells to X-ray,[2],significant enhancement in the radiosensitivity
same,detection of compound in blood/plasma,[3]; after IP injection,significant levels; also recorded: detected in the plasma
same,elimination from the body,[3]; after IP injection,well expelled from the body within a few hours
same,time of highest concentration after i.p. injection,"[3]; plasma/blood, IP 0-7 mg/kg, HPLC-Mass Spectrometry",about 20 minutes
same,time at which concentration dropped to nearly zero,"[3]; plasma/blood, after i.p. injection",about 3 hr
